# Data published in ChEMBL document CHEMBL1275373, “Identification by high-throughput screening of inhibitors of Schistosoma mansoni NAD(+) catabolizing enzyme” (Bioorg Med Chem, 2010).
# Active and inactive are the calls of the source. No cut-off for these calls is given here.
# Test system: not listed separately
# Experiment: Inhibition of Schistosoma mansoni recombinant NAD+ glycohydrolase expressed in Pichia pastoris by continuous fluorometric method
row,IC50 [µM],SMILES
1,> 100,Oc1cc(O)c2c(c1)OC(c1ccc(O)c(O)c1)C(O)C2 (configuration not stated) [CATECHIN]
2,2.3,Oc1cc(O)c2cc(O)c(-c3ccc(O)c(O)c3)[o+]c2c1 [CYANIDIN]
3,6.4,Oc1ccc2cc(O)c(-c3ccc(O)c(O)c3)[o+]c2c1 [FISETINIDIN]
4,5.9,Oc1cc(O)c2ccc(-c3ccc(O)c(O)c3)[o+]c2c1 [LUTEOLINIDIN]
5,4.4,Oc1ccc(-c2[o+]c3cc(O)cc(O)c3cc2O)cc1 [PELARGONIDIN]
6,> 100,Oc1cc(O)cc(/C=C/c2ccc(O)c(O)c2)c1 [PICEATANNOL]
7,> 100,Oc1ccc(/C=C/c2cc(O)cc(O)c2)cc1 [RESVERATROL]
8,19.5,O=C1c2c(O)cc(O)cc2OC(c2ccc(O)c(O)c2)C1O (configuration not stated) [TAXIFOLIN]

# Further lines, the compound ahead of its results:
row,SMILES,IC50 [µM]
1,Oc1cc(O)c2cc(O)c(-c3cc(O)c(O)c(O)c3)[o+]c2c1 [DELPHINIDIN],6
2,COc1ccc(-c2ccc3c(O)cc(O)cc3[o+]2)cc1O [DIOSMETINIDIN],9.9
3,OC[C@H]1O[C@@H](Oc2cc3c(O)cc(O)cc3[o+]c2-c2ccc(O)c(O)c2)[C@H](O)[C@@H](O)[C@@H]1O [KUROMANIN],8.2
4,O=c1cc(-c2ccc(O)c(O)c2)oc2cc(O)cc(O)c12 [LUTEOLIN],8.4
5,COc1cc(-c2[o+]c3cc(O)cc(O)c3cc2O)cc(OC)c1O [MALVIDIN],8
6,O=c1c(O)c(-c2cc(O)c(O)c(O)c2)oc2cc(O)cc(O)c12 [MYRICETIN],22
7,COc1cc(-c2[o+]c3cc(O)cc(O)c3cc2O)cc(O)c1O [PETUNIDIN],37.8
8,Oc1ccc(-c2[o+]c3cc(O)c(O)c(O)c3cc2O)cc1O [QUERCETAGETINIDIN],6.1
9,O=c1c(O)c(-c2ccc(O)c(O)c2)oc2cc(O)c(O)c(O)c12 [QUERCETAGETIN],1.3
10,O=c1c(O)c(-c2ccc(O)c(O)c2)oc2cc(O)cc(O)c12 [QUERCETIN],3.9
11,O=c1c(O)c(-c2cc(O)c(O)c(O)c2)oc2cc(O)ccc12 [ROBINETIN],5.8

# Target: not listed separately
# Experiment: Competitive inhibition of Schistosoma mansoni recombinant NAD+ glycohydrolase expressed in Pichia pastoris by Michaelis-Menten equation analysis
row,SMILES,Ki [µM]
1,Oc1cc(O)c2cc(O)c(-c3ccc(O)c(O)c3)[o+]c2c1 [CYANIDIN],2.1

# Test system: Schistosoma mansoni
# Experiment: Inhibition of Schistosoma mansoni recombinant NAD+ glycohydrolase expressed in Pichia pastoris at up to 100 uM by continuous fluorometric method
SMILES,Activity,inhibition [%]
CCN(CC)CCCC(C)Nc1ccnc2cc(Cl)ccc12 (configuration not stated),inactive,–
CN(C)CC(=O)Nc1ccc2[nH]c(=O)c3ccccc3c2c1,–,< 10
COc1cc(/C=C/C(=O)CC(=O)/C=C/c2ccc(O)c(OC)c2)ccc1O,–,< 10
Cc1ccc(C(=O)Nc2ccc(S(=O)(=O)O)c3cc(S(=O)(=O)O)cc(S(=O)(=O)O)c23)cc1NC(=O)c1cccc(NC(=O)Nc2cccc(C(=O)Nc3cc(C(=O)Nc4ccc(S(=O)(=O)O)c5cc(S(=O)(=O)O)cc(S(=O)(=O)O)c45)ccc3C)c2)c1,–,< 10
O=C(C1CCCCC1)N1CC(=O)N2CCc3ccccc3C2C1 (configuration not stated),–,< 10
O=C1NC(=O)c2cccc3cccc1c23,–,< 10
OC(c1cc(C(F)(F)F)nc2c(C(F)(F)F)cccc12)C1CCCCN1 (configuration not stated),inactive,–
